Measured values: patent US20250129430A1, “HIGH ATP-AFFINITY PROTEIN AS THERAPEUTIC TARGET FOR INTRACTABLE CANCER MOLECULAR SUBTYPES AND INHIBITOR THEREOF” (VeraVerse Co., Ltd., priority 2021, published 2025)

Columns and labels:
Test in all cases: Cell viability drug screen, 12-point dose-response AUC
Type in all cases: cell-based, human
FU97 = test system: FU97; parameters: Average Area Under the Viability Curve (AUC), AUC norm value: scale not given here; settings: FU97 cells, 72 hours
In short: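 Trapezoidal AUC of a 12-point, DMSO-normalized dose-response curve. Luminescent viability was measured after 72 h of exposure at 37° C to half-log serial dilutions (0.5% DMSO control), dosed 24 h after plating FU97 cells at 5×10^3 per well.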

NCC19 = NCC19 cells, 72 hours
In short: (§1)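 Each cell line receives a twelve-point half-log titration of drug beginning 24 h after plating 5×10^3 cells per well. Following 72 h culture at 37 °C, luminescent signal is recorded and expressed versus vehicle. AUC is derived by the trapezoidal method.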

NCC24 = NCC24 cells, 72 hours
In short: as §1

YCC2 = YCC2 cells, 72 hours
In short: as §1

SNU16 = SNU16 cells, 72 hours
In short: as §1

NCC20 = NCC20 cells, 72 hours
In short: as §1

SNU1 = SNU1 cells, 72 hours
In short: as §1

SNU668 = settings: 72 hours; for Average Area Under the Viability Curve (AUC), AUC norm value: SNU668 cells (SEM subtype)
In short: as §1

SNU620 = SNU620 cells, 72 hours
In short: as §1

SNU1750 = settings: 72 hours; for Average Area Under the Viability Curve (AUC), AUC norm value: SNU1750 cells (SEM subtype)
In short: as §1

MKN74 = MKN74 cells, 72 hours
In short: as §1

NCI_N87 = NCI_N87 cells, 72 hours
In short: as §1

SNU601 = SNU601 cells, 72 hours
In short: as §1

SNU484 = settings: 72 hours; for Average Area Under the Viability Curve (AUC), AUC norm value: SNU484 cells (SEM subtype)
In short: as §1

SNU719 = SNU719 cells, 72 hours
In short: as §1

MKN28 = MKN28 cells, 72 hours
In short: as §1

SNU216 = settings: 72 hours; for Average Area Under the Viability Curve (AUC), AUC norm value: SNU216 cells (non-SEM subtype)
In short: as §1

SNU1967 = SNU1967 cells, 72 hours
In short: as §1

OCUM1 = OCUM1 cells, 72 hours
In short: as §1

SK4 = settings: 72 hours; for Average Area Under the Viability Curve (AUC), AUC norm value: SK4 cells (SEM subtype)
In short: as §1

SNU638 = SNU638 cells, 72 hours
In short: as §1

KATO3 = KATO3 cells, 72 hours
In short: as §1

MKN1 = MKN1 cells, 72 hours
In short: as §1

NCC59 = NCC59 cells, 72 hours
In short: as §1

Hs746T = settings: 72 hours; for Average Area Under the Viability Curve (AUC), AUC norm value: Hs746T cells (SEM subtype)
In short: as §1

YCC3 = YCC3 cells, 72 hours
In short: as §1

AGS = settings: 72 hours; for Average Area Under the Viability Curve (AUC), AUC norm value: AGS cells (non-SEM subtype)
In short: as §1

YCC11 = settings: 72 hours; for Average Area Under the Viability Curve (AUC), AUC norm value: YCC11 cells (SEM subtype)
In short: as §1

MKN45 = settings: 72 hours; for Average Area Under the Viability Curve (AUC), AUC norm value: MKN45 cells (non-SEM subtype)
In short: as §1

Cc1ccc(C(=O)N(CCCN)[C@@H](c2oc3cc(Cl)ccc3c(=O)c2Cc2ccccc2)C(C)C)cc1 [SB 743921]
area under the viability curve (AUC), normalized (FU97; 12-point dose-response): 0.8407 | area under the viability curve (AUC), normalized (NCC19; 12-point dose-response): 1.296 | area under the viability curve (AUC), normalized (NCC24; 12-point dose-response): −2.238 | area under the viability curve (AUC), normalized (YCC2; 12-point dose-response): 0.2048 | area under the viability curve (AUC), normalized (SNU16; 12-point dose-response): −1.454 | area under the viability curve (AUC), normalized (NCC20; 12-point dose-response): −1.288 | area under the viability curve (AUC), normalized (SNU1; 12-point dose-response): −0.9587 | area under the viability curve (AUC), normalized (SNU668; SNU668 cells, 12-point dose-response): 0 | area under the viability curve (AUC), normalized (SNU620; 12-point dose-response): −2.366 | area under the viability curve (AUC), normalized (SNU1750; SNU1750 cells, 12-point dose-response): 0.00014 | area under the viability curve (AUC), normalized (MKN74; 12-point dose-response): 0.00599 | area under the viability curve (AUC), normalized (NCI_N87; 12-point dose-response): −1.205 | area under the viability curve (AUC), normalized (SNU601; 12-point dose-response): −1.703 | area under the viability curve (AUC), normalized (SNU484; SNU484 cells, 12-point dose-response): −1.3076 | area under the viability curve (AUC), normalized (SNU719; 12-point dose-response): 2.115 | area under the viability curve (AUC), normalized (MKN28; 12-point dose-response): −1.699 | area under the viability curve (AUC), normalized (SNU216; SNU216 cells, 12-point dose-response): 2.438 | area under the viability curve (AUC), normalized (SNU1967; 12-point dose-response): 0.8572 | area under the viability curve (AUC), normalized (OCUM1; 12-point dose-response): 1.653 | area under the viability curve (AUC), normalized (SK4; SK4 cells, 12-point dose-response): −0.9769 | area under the viability curve (AUC), normalized (SNU638; 12-point dose-response): −0.2572 | area under the viability curve (AUC), normalized (KATO3; 12-point dose-response): 3.189 | area under the viability curve (AUC), normalized (MKN1; 12-point dose-response): −1.406 | area under the viability curve (AUC), normalized (NCC59; 12-point dose-response): 2.285 | area under the viability curve (AUC), normalized (Hs746T; Hs746T cells, 12-point dose-response): 1.359 | area under the viability curve (AUC), normalized (YCC3; 12-point dose-response): 2.421 | area under the viability curve (AUC), normalized (AGS; AGS cells, 12-point dose-response): −2.366 | area under the viability curve (AUC), normalized (YCC11; YCC11 cells, 12-point dose-response): −1.353 | area under the viability curve (AUC), normalized (MKN45; MKN45 cells, 12-point dose-response): 2.818

COc1cc(N2CCC(N3CCN(C)CC3)CC2)ccc1Nc1ncc(Cl)c(Nc2ccccc2S(=O)(=O)C(C)C)n1 [TAE684 (NVP-TAE684), TAE684]
Average Area Under the Viability Curve (AUC), AUC norm value (FU97): −1.587 | Average Area Under the Viability Curve (AUC), AUC norm value (NCC19): 1.944 | Average Area Under the Viability Curve (AUC), AUC norm value (NCC24): 1.662 | Average Area Under the Viability Curve (AUC), AUC norm value (YCC2): −0.5512 | Average Area Under the Viability Curve (AUC), AUC norm value (SNU16): −3.18 | Average Area Under the Viability Curve (AUC), AUC norm value (NCC20): −2.659 | Average Area Under the Viability Curve (AUC), AUC norm value (SNU1): −0.1185 | Average Area Under the Viability Curve (AUC), AUC norm value (SNU668): 1.009 | Average Area Under the Viability Curve (AUC), AUC norm value (SNU620): 0.4637 | Average Area Under the Viability Curve (AUC), AUC norm value (SNU1750): −0.941 | Average Area Under the Viability Curve (AUC), AUC norm value (MKN74): −0.04126 | Average Area Under the Viability Curve (AUC), AUC norm value (NCI_N87): 2.003 | Average Area Under the Viability Curve (AUC), AUC norm value (SNU601): 1.062 | Average Area Under the Viability Curve (AUC), AUC norm value (SNU484): −0.6182 | Average Area Under the Viability Curve (AUC), AUC norm value (SNU719): 1.051 | Average Area Under the Viability Curve (AUC), AUC norm value (MKN28): −0.4177 | Average Area Under the Viability Curve (AUC), AUC norm value (SNU216): 0.5205 | Average Area Under the Viability Curve (AUC), AUC norm value (SNU1967): −1.412 | Average Area Under the Viability Curve (AUC), AUC norm value (OCUM1): −0.2195 | Average Area Under the Viability Curve (AUC), AUC norm value (SK4): −0.6572 | Average Area Under the Viability Curve (AUC), AUC norm value (SNU638): 0.4071 | Average Area Under the Viability Curve (AUC), AUC norm value (KATO3): 0.2672 | Average Area Under the Viability Curve (AUC), AUC norm value (MKN1): 0 | Average Area Under the Viability Curve (AUC), AUC norm value (NCC59): 1.273 | Average Area Under the Viability Curve (AUC), AUC norm value (Hs746T): 1.039 | Average Area Under the Viability Curve (AUC), AUC norm value (YCC3): 1.708 | Average Area Under the Viability Curve (AUC), AUC norm value (AGS): −1.326 | Average Area Under the Viability Curve (AUC), AUC norm value (YCC11): −1.4836 | Average Area Under the Viability Curve (AUC), AUC norm value (MKN45): 2.601

COc1cc([C@@H]2c3cc4c(cc3[C@@H](O[C@@H]3O[C@@H]5CO[C@@H](c6cccs6)O[C@H]5[C@H](O)[C@H]3O)[C@H]3COC(=O)[C@H]23)OCO4)cc(OC)c1O [Teniposide (Vumon), Teniposide]
Average Area Under the Viability Curve (AUC), AUC norm value (FU97): 1.309 | Average Area Under the Viability Curve (AUC), AUC norm value (NCC19): 2.415 | Average Area Under the Viability Curve (AUC), AUC norm value (NCC24): −0.5766 | Average Area Under the Viability Curve (AUC), AUC norm value (YCC2): 0.249 | Average Area Under the Viability Curve (AUC), AUC norm value (SNU16): −0.8192 | Average Area Under the Viability Curve (AUC), AUC norm value (NCC20): −0.8716 | Average Area Under the Viability Curve (AUC), AUC norm value (SNU1): −0.3019 | Average Area Under the Viability Curve (AUC), AUC norm value (SNU668): −0.6175 | Average Area Under the Viability Curve (AUC), AUC norm value (SNU620): 0 | Average Area Under the Viability Curve (AUC), AUC norm value (SNU1750): −0.5618 | Average Area Under the Viability Curve (AUC), AUC norm value (MKN74): 0.3993 | Average Area Under the Viability Curve (AUC), AUC norm value (NCI_N87): 2.319 | Average Area Under the Viability Curve (AUC), AUC norm value (SNU601): −1.094 | Average Area Under the Viability Curve (AUC), AUC norm value (SNU484): −1.211 | Average Area Under the Viability Curve (AUC), AUC norm value (SNU719): 2.899 | Average Area Under the Viability Curve (AUC), AUC norm value (MKN28): 0.1008 | Average Area Under the Viability Curve (AUC), AUC norm value (SNU216): 0.9296 | Average Area Under the Viability Curve (AUC), AUC norm value (SNU1967): −0.7519 | Average Area Under the Viability Curve (AUC), AUC norm value (OCUM1): 1.001 | Average Area Under the Viability Curve (AUC), AUC norm value (SK4): −0.2681 | Average Area Under the Viability Curve (AUC), AUC norm value (SNU638): −0.3584 | Average Area Under the Viability Curve (AUC), AUC norm value (KATO3): 1.852 | Average Area Under the Viability Curve (AUC), AUC norm value (MKN1): −1.955 | Average Area Under the Viability Curve (AUC), AUC norm value (NCC59): 1.59 | Average Area Under the Viability Curve (AUC), AUC norm value (Hs746T): 0.6261 | Average Area Under the Viability Curve (AUC), AUC norm value (YCC3): 2.1949 | Average Area Under the Viability Curve (AUC), AUC norm value (AGS): −2.042 | Average Area Under the Viability Curve (AUC), AUC norm value (YCC11): −1.342 | Average Area Under the Viability Curve (AUC), AUC norm value (MKN45): 1.933
